{"source": "patent US7064141B1", "about": "“Method for preventing, treating or inhibiting development of simple retinopathy and preproliferative retinopathy” (Takeda Pharmaceutical Company Limited, priority 1999, dated 2006)", "key": {"Diabetic Rats": {"system": "Diabetic Rats", "test": "Retinal potential: latency of oscillatory potential peaks of diabetic rats", "type": "in vivo, rat", "conditions": "STZ-diabetic SHRSP rats", "description": "(§1) • Compound 1: (±)-1-(cyclohexyloxycarbonyloxy) ethyl-2-ethoxy-1-[[2′-(1H-tetrazol-5-yl)biphenyl-4-yl]methyl]-1H-benzimidazole-7-carboxylate (Compound 1) Method: Streptozotocin (STZ) was intravenously injected at a dose of 30 mg/kg to 10-week old male rats (Stroke-Prone Spontaneously Hypertensive Rat:SHRSP). When 9 weeks had passed since the injection of STZ, the blood sugar values of the rats were measured. The rats were divided into 3 groups, that is, a group before the administration, a solvent-administered control group and an administered group with the compound 1 (3 mg/kg/day, p.o.). Four weeks after, the blood sugar values and the retinal potentials were measured, and then, the rats were killed by bleeding by discission of the aorta abdominalis under deep ether anesthetization so as to remove the eyeball. A suspension of the compound 1 in a 0.5% methylcellulose-containing physiological saline was orally administered to the rats once a day for 4 weeks. On the other hand, 23-week old SHRSP rats were used as an untreated group.\nThe retinal potential was measured by the following method. The subject animal was subjected to dark adaptation in a dark room for 90 to 120 minutes, and then, anesthetized with ketamine hydrochloride (50 mg/kg, i.m.) and immobilized with xylazine (2 mg/kg, i.m.). The limb and the head of the subject animal were fixed with a string. Mydriatic was dropped on the left eyeball to widen the pupil, and a contact lens type electrode was placed on the cornea using a contact lens-wearing auxiliary. A xenon lamp (1.2 joules) was set at a position 10 cm distant in the forward direction from the eye to be tested (the left eye), and light stimuli were controlled by a light stimulator (SLS-3100 manufactured by Nippon Koden K.K.). The retinal potential generated by light stimuli (0.5 Hz, 16 times) was amplified by a Neuropack (MEB-5100 manufactured by Nippon Koden K.K., Low cut 0.5 Hz, and sweeping time: 200 msec). The results were added and averaged. The latency of oscillatory potential peaks (O1, O2 and O3) was counted from the resultant waveforms."}, "Retinal VEGF mRNA": {"system": "Retinal VEGF mRNA", "test": "Retinal VEGF mRNA of diabetic rats, semi-quantitative RT-PCR", "type": "in vivo, rat", "conditions": "STZ-diabetic SHRSP rats", "description": "as §1, with “On the other hand, 23-week old SHRSP rats were used as an untreated group.” left out\nVEGF mRNA in the retina was quantitatively determined as follows. […] The quantity of VEGF mRNA was measured from the extracted RNA by the semi-quantitative RT-PCR process (ABI PRISM 7700: Perkin Elmer) using two kinds of fluorescent probes (FAM: VEGF, and VIC: β-action). The quantity of VEGF mRNA was corrected by the quantity of β-action mRNA and calculated provided that the quantity of VEGF mRNA of SD rat retina was defined as 1."}, "[1]": {"conditions": "3 mg/kg/day p.o. for 4 weeks, n = 4, average ± standard deviation"}}}
{"smiles": "CCOc1nc2cccc(C(=O)OC(C)OC(=O)OC3CCCCC3)c2n1Cc1ccc(-c2ccccc2-c2nnn[nH]2)cc1", "note": "(racemic) [Compound 1, (±)-1-(cyclohexyloxycarbonyloxy) ethyl-2-ethoxy-1-[[2′-(1H-tetrazol-5-yl)biphenyl-4-yl]methyl]-1H-benzimidazole-7-carboxylate]", "values": [{"measurement": "Latency of oscillatory potential peak O1", "setting": "Diabetic Rats; [1]", "result": "23.81 ± 0.42", "unit": "ms"}, {"measurement": "Latency of oscillatory potential peak O2", "setting": "Diabetic Rats; [1]", "result": "32.88 ± 1.17", "unit": "ms"}, {"measurement": "Latency of oscillatory potential peak O3", "setting": "Diabetic Rats; [1]", "result": "43.39 ± 1.86", "unit": "ms"}, {"measurement": "Latency of oscillatory potential peaks O1, O2 and O3, in words", "setting": "Diabetic Rats; 3 mg/kg/day p.o., 4 weeks", "result": "latency was reduced in any of the O1, O2 and O3"}, {"measurement": "Latency of oscillatory potential peak O1 compared with the control group, in words", "setting": "Diabetic Rats; 3 mg/kg/day p.o., 4 weeks, Dunnett's t Test", "result": "significant improvement"}, {"measurement": "Retinal VEGF mRNA (VEGF mRNA of SD rat determined as 1)", "setting": "Retinal VEGF mRNA; 3 mg/kg/day p.o. for 4 weeks, n = 4, corrected by β-action mRNA, average ± standard deviation", "result": "0.99 ± 0.14"}, {"measurement": "Quantity of VEGF mRNA in the retinal tissue, in words", "setting": "Retinal VEGF mRNA; 3 mg/kg/day p.o., 4 weeks", "result": "significantly decreased"}]}
